# Experimental data published in patent US9304136B2, “Means and methods for assessing increased peroxisomal proliferation” (BASF SE, priority 2008, dated 2016).
# Experiments:
# male rats = assay: Plasma metabolite profiling after 28-day oral dosing, male rats (markers for peroxisomal proliferators); format: in vivo, rat; conditions: once daily gavage; for 16-Methylheptadecanoic acid, change in plasma relative to control / 17-Methyloctadecanoic acid, change in plasma relative to control / Coenzyme Q10, change in plasma relative to control / Proline, change in plasma relative to control / Threonine, change in plasma relative to control / Tyrosine, change in plasma relative to control / trans-4-Hydroxyproline, change in plasma relative to control: marker direction down; for Eicosatrienoic acid (C20:3), change in plasma relative to control: marker direction up
# Protocol: (§1) A group of each 5 male and female rats was dosed once daily with the indicated compounds (see tables below) at 10 and 100 mg/kg body weight per gavage over 28 days. Additional groups of each 5 male and female animals served as controls. Before starting the treatment period, animals, which were 62-64 days old when supplied, were acclimatized to the housing and environmental conditions for 7 days. All animals of the animal population were kept under the same constant temperature (20-24±3° C.) and the same constant humidity (30-70%). Each animal of the animal population was kept in a separate cage. The animals of the animal population are fed ad libitum. The food to be used was be essentially free of chemical or microbial contaminants. Drinking water was also offered ad libitum. Accordingly, the water was be free of chemical and microbial contaminants as laid down in the European Drinking Water Directive 98/83/EG. The illumination period was 12 hours light followed by 12 hours darkness (12 hours light, from 6:00 to 18:00, and 12 hours darkness, from 18:00 to 6:00).
# (§2) In the morning of day 7, 14, and 28, blood was taken from the retroorbital venous plexus from fasted anaesthetized animals. From each animal, 1 ml of blood was collected with EDTA as anticoagulant. The samples were be centrifuged for generation of plasma. All plasma samples were covered with a N2 atmosphere and then stored at −80° C. until analysis.
# (§3) For mass spectrometry-based metabolite profiling analyses plasma samples were extracted and a polar and a non-polar fraction was obtained. For GC-MS analysis, the non-polar fraction was […] with methanol under acidic conditions to yield the fatty acid methyl esters. Both fractions were further derivatised with O-methyl-hydroxyamine hydrochloride and pyridine to convert Oxo-groups to O-metyloximes and subsequently with a silyating agent […]. In LC-MS analysis, both fractions were reconstituted in appropriate solvent mixtures. HPLC was performed by gradient elution on reversed phase separation columns. For mass spectrometric detection metanomics proprietary technology was applied which allows target and high sensitivity MRM (Multiple Reaction Monitoring) profiling in parallel to a full screen analysis.
# (§4) Following comprehensive analytical validation steps, the data for each analyte were normalized against data from pool samples. These samples were run in parallel through the whole process to account for process variability. The significance of treatment group values specific for sex, dose group and metabolite was determined by comparing means of the treated groups to the means of the respective untreated control groups using Student's t-test. Normalized treatment group values and their significance were fed into a database for further statistics and data mining processes.
# (§5) The changes of the group of plasma metabolites being indicative for increased peroxisomal proliferation after treatment of the rats are shown in the following tables: […]
# female rats = assay: Plasma metabolite profiling after 28-day oral dosing, female rats (markers for peroxisomal proliferators); format: in vivo, rat; conditions: once daily gavage; for 16-Methylheptadecanoic acid, change in plasma relative to control / 17-Methyloctadecanoic acid, change in plasma relative to control / Cytosine, change in plasma relative to control / Phosphatidylcholine (C18:0/C22:6), change in plasma relative to control: marker direction down; for Coenzyme Q9, change in plasma relative to control / Gamma-Linolenic acid (C18:cis[6,9,12]3), change in plasma relative to control / Glycerol, lipid fraction, change in plasma relative to control / Palmitic acid (C16:0), change in plasma relative to control / Pantothenic acid, change in plasma relative to control / Threonic acid, change in plasma relative to control: marker direction up
# Protocol: as §1, §2, §3, §4, §5
smiles,measurement,setting,value
CCCCOC(=O)c1ccccc1C(=O)OCc1ccccc1 [Benzylbutyl Phthalate],"16-Methylheptadecanoic acid, change in plasma relative to control",male rats; mh7 (day 7),0.24
same,"17-Methyloctadecanoic acid, change in plasma relative to control",male rats; mh7 (day 7),0.37
same,"Coenzyme Q10, change in plasma relative to control",male rats; mh7 (day 7),0.51
same,"Proline, change in plasma relative to control",male rats; mh7 (day 7),0.74
same,"Threonine, change in plasma relative to control",male rats; mh7 (day 7),0.55
same,"Tyrosine, change in plasma relative to control",male rats; mh7 (day 7),0.74
same,"trans-4-Hydroxyproline, change in plasma relative to control",male rats; mh7 (day 7),0.69
same,"Eicosatrienoic acid (C20:3), change in plasma relative to control",male rats; mh7 (day 7),2.56
same,"16-Methylheptadecanoic acid, change in plasma relative to control",male rats; mh14 (day 14),0.31
same,"17-Methyloctadecanoic acid, change in plasma relative to control",male rats; mh14 (day 14),0.28
same,"Coenzyme Q10, change in plasma relative to control",male rats; mh14 (day 14),0.34
same,"Proline, change in plasma relative to control",male rats; mh14 (day 14),0.85
same,"Threonine, change in plasma relative to control",male rats; mh14 (day 14),0.69
same,"Tyrosine, change in plasma relative to control",male rats; mh14 (day 14),0.83
same,"trans-4-Hydroxyproline, change in plasma relative to control",male rats; mh14 (day 14),0.65
same,"Eicosatrienoic acid (C20:3), change in plasma relative to control",male rats; mh14 (day 14),3.12
same,"16-Methylheptadecanoic acid, change in plasma relative to control",male rats; mh28 (day 28),0.20
same,"17-Methyloctadecanoic acid, change in plasma relative to control",male rats; mh28 (day 28),0.30
same,"Coenzyme Q10, change in plasma relative to control",male rats; mh28 (day 28),0.27
same,"Proline, change in plasma relative to control",male rats; mh28 (day 28),0.84
same,"Threonine, change in plasma relative to control",male rats; mh28 (day 28),0.81
same,"Tyrosine, change in plasma relative to control",male rats; mh28 (day 28),0.97
same,"trans-4-Hydroxyproline, change in plasma relative to control",male rats; mh28 (day 28),0.83
same,"Eicosatrienoic acid (C20:3), change in plasma relative to control",male rats; mh28 (day 28),4.12
same,"16-Methylheptadecanoic acid, change in plasma relative to control",female rats; fh7 (day 7),0.55
same,"17-Methyloctadecanoic acid, change in plasma relative to control",female rats; fh7 (day 7),0.78
same,"Cytosine, change in plasma relative to control",female rats; fh7 (day 7),0.77
same,"Phosphatidylcholine (C18:0/C22:6), change in plasma relative to control",female rats; fh7 (day 7),0.59
same,"Coenzyme Q9, change in plasma relative to control",female rats; fh7 (day 7),1.44
same,"Gamma-Linolenic acid (C18:cis[6,9,12]3), change in plasma relative to control",female rats; fh7 (day 7),1.98
same,"Glycerol, lipid fraction, change in plasma relative to control",female rats; fh7 (day 7),1.15
same,"Palmitic acid (C16:0), change in plasma relative to control",female rats; fh7 (day 7),1.48
same,"Pantothenic acid, change in plasma relative to control",female rats; fh7 (day 7),1.82
same,"Threonic acid, change in plasma relative to control",female rats; fh7 (day 7),1.20
same,"16-Methylheptadecanoic acid, change in plasma relative to control",female rats; fh14 (day 14),0.66
same,"17-Methyloctadecanoic acid, change in plasma relative to control",female rats; fh14 (day 14),0.64
same,"Cytosine, change in plasma relative to control",female rats; fh14 (day 14),0.63
same,"Phosphatidylcholine (C18:0/C22:6), change in plasma relative to control",female rats; fh14 (day 14),0.86
same,"Coenzyme Q9, change in plasma relative to control",female rats; fh14 (day 14),1.50
same,"Gamma-Linolenic acid (C18:cis[6,9,12]3), change in plasma relative to control",female rats; fh14 (day 14),1.64
same,"Glycerol, lipid fraction, change in plasma relative to control",female rats; fh14 (day 14),1.48
same,"Palmitic acid (C16:0), change in plasma relative to control",female rats; fh14 (day 14),1.79
same,"Pantothenic acid, change in plasma relative to control",female rats; fh14 (day 14),2.06
same,"Threonic acid, change in plasma relative to control",female rats; fh14 (day 14),1.53
same,"16-Methylheptadecanoic acid, change in plasma relative to control",female rats; fh28 (day 28),0.85
same,"17-Methyloctadecanoic acid, change in plasma relative to control",female rats; fh28 (day 28),0.69
same,"Cytosine, change in plasma relative to control",female rats; fh28 (day 28),0.79
same,"Phosphatidylcholine (C18:0/C22:6), change in plasma relative to control",female rats; fh28 (day 28),0.81
same,"Coenzyme Q9, change in plasma relative to control",female rats; fh28 (day 28),1.78
same,"Gamma-Linolenic acid (C18:cis[6,9,12]3), change in plasma relative to control",female rats; fh28 (day 28),2.08
same,"Glycerol, lipid fraction, change in plasma relative to control",female rats; fh28 (day 28),2.43
same,"Palmitic acid (C16:0), change in plasma relative to control",female rats; fh28 (day 28),1.94
same,"Pantothenic acid, change in plasma relative to control",female rats; fh28 (day 28),2.42
same,"Threonic acid, change in plasma relative to control",female rats; fh28 (day 28),1.74
CCOC(=O)C(C)(C)Oc1ccc(Cl)cc1 [Clofibrate],"16-Methylheptadecanoic acid, change in plasma relative to control",male rats; mh7 (day 7),0.24
same,"17-Methyloctadecanoic acid, change in plasma relative to control",male rats; mh7 (day 7),0.35
same,"Coenzyme Q10, change in plasma relative to control",male rats; mh7 (day 7),0.45
same,"Proline, change in plasma relative to control",male rats; mh7 (day 7),0.78
same,"Threonine, change in plasma relative to control",male rats; mh7 (day 7),0.68
same,"Tyrosine, change in plasma relative to control",male rats; mh7 (day 7),0.87
same,"trans-4-Hydroxyproline, change in plasma relative to control",male rats; mh7 (day 7),0.77
same,"Eicosatrienoic acid (C20:3), change in plasma relative to control",male rats; mh7 (day 7),1.65
same,"16-Methylheptadecanoic acid, change in plasma relative to control",male rats; mh14 (day 14),0.21
same,"17-Methyloctadecanoic acid, change in plasma relative to control",male rats; mh14 (day 14),0.27
same,"Coenzyme Q10, change in plasma relative to control",male rats; mh14 (day 14),0.60
same,"Proline, change in plasma relative to control",male rats; mh14 (day 14),0.80
same,"Threonine, change in plasma relative to control",male rats; mh14 (day 14),1.02
same,"Tyrosine, change in plasma relative to control",male rats; mh14 (day 14),0.95
same,"trans-4-Hydroxyproline, change in plasma relative to control",male rats; mh14 (day 14),0.64
same,"Eicosatrienoic acid (C20:3), change in plasma relative to control",male rats; mh14 (day 14),1.72
same,"16-Methylheptadecanoic acid, change in plasma relative to control",male rats; mh28 (day 28),0.28
same,"17-Methyloctadecanoic acid, change in plasma relative to control",male rats; mh28 (day 28),0.37
same,"Coenzyme Q10, change in plasma relative to control",male rats; mh28 (day 28),0.47
same,"Proline, change in plasma relative to control",male rats; mh28 (day 28),0.87
same,"Threonine, change in plasma relative to control",male rats; mh28 (day 28),1.06
same,"Tyrosine, change in plasma relative to control",male rats; mh28 (day 28),1.02
same,"trans-4-Hydroxyproline, change in plasma relative to control",male rats; mh28 (day 28),0.57
same,"Eicosatrienoic acid (C20:3), change in plasma relative to control",male rats; mh28 (day 28),2.54
same,"16-Methylheptadecanoic acid, change in plasma relative to control",female rats; fh7 (day 7),0.55
same,"17-Methyloctadecanoic acid, change in plasma relative to control",female rats; fh7 (day 7),0.48
same,"Cytosine, change in plasma relative to control",female rats; fh7 (day 7),0.87
same,"Phosphatidylcholine (C18:0/C22:6), change in plasma relative to control",female rats; fh7 (day 7),0.88
same,"Coenzyme Q9, change in plasma relative to control",female rats; fh7 (day 7),1.86
same,"Gamma-Linolenic acid (C18:cis[6,9,12]3), change in plasma relative to control",female rats; fh7 (day 7),2.04
same,"Glycerol, lipid fraction, change in plasma relative to control",female rats; fh7 (day 7),1.39
same,"Palmitic acid (C16:0), change in plasma relative to control",female rats; fh7 (day 7),1.05
same,"Pantothenic acid, change in plasma relative to control",female rats; fh7 (day 7),1.07
same,"Threonic acid, change in plasma relative to control",female rats; fh7 (day 7),1.23
same,"16-Methylheptadecanoic acid, change in plasma relative to control",female rats; fh14 (day 14),0.75
same,"17-Methyloctadecanoic acid, change in plasma relative to control",female rats; fh14 (day 14),0.57
same,"Cytosine, change in plasma relative to control",female rats; fh14 (day 14),0.86
same,"Phosphatidylcholine (C18:0/C22:6), change in plasma relative to control",female rats; fh14 (day 14),0.71
same,"Coenzyme Q9, change in plasma relative to control",female rats; fh14 (day 14),1.64
same,"Gamma-Linolenic acid (C18:cis[6,9,12]3), change in plasma relative to control",female rats; fh14 (day 14),1.88
same,"Glycerol, lipid fraction, change in plasma relative to control",female rats; fh14 (day 14),1.64
same,"Palmitic acid (C16:0), change in plasma relative to control",female rats; fh14 (day 14),1.38
same,"Pantothenic acid, change in plasma relative to control",female rats; fh14 (day 14),1.75
same,"Threonic acid, change in plasma relative to control",female rats; fh14 (day 14),1.30
same,"16-Methylheptadecanoic acid, change in plasma relative to control",female rats; fh28 (day 28),0.75
same,"17-Methyloctadecanoic acid, change in plasma relative to control",female rats; fh28 (day 28),0.77
same,"Cytosine, change in plasma relative to control",female rats; fh28 (day 28),1.00
same,"Phosphatidylcholine (C18:0/C22:6), change in plasma relative to control",female rats; fh28 (day 28),0.53
same,"Coenzyme Q9, change in plasma relative to control",female rats; fh28 (day 28),2.55
same,"Gamma-Linolenic acid (C18:cis[6,9,12]3), change in plasma relative to control",female rats; fh28 (day 28),7.00
same,"Glycerol, lipid fraction, change in plasma relative to control",female rats; fh28 (day 28),4.99
same,"Palmitic acid (C16:0), change in plasma relative to control",female rats; fh28 (day 28),2.31
same,"Pantothenic acid, change in plasma relative to control",female rats; fh28 (day 28),1.22
same,"Threonic acid, change in plasma relative to control",female rats; fh28 (day 28),1.30
